Like-named read-outs stand apart in the source and are kept apart here.
How the values were obtained:
[1] = target: HDAC1 (Homo sapiens, UniProt Q13547); test: HDAC1 colorimetric assay, substrate Boc-Lys(Ac)-AMC
Protocol: 1 nM of HDAC1 was incubated with increasing concentrations of the respective compound for 30 minutes at 30° C. The reaction was initiated by addition of 50 μM of the substrate Boc-Lys(Ac)-AMC. After an incubation of 60 minutes the reaction was stopped by addition of 20 μM SAHA and the deacetylated substrate was converted into a fluorescent product by the addition of trypsin.

[2] = target: HDAC5 (Homo sapiens, UniProt Q9UQL6); test: HDAC5 colorimetric assay, substrate Boc-Lys(TFA)-AMC
[3] = target: T1, HDAC7 (Homo sapiens, UniProt Q8WUI4); test: HDAC7 colorimetric assay, substrate Boc-Lys(TFA)-AMC
T1 sequence (Q8WUI4 1-952): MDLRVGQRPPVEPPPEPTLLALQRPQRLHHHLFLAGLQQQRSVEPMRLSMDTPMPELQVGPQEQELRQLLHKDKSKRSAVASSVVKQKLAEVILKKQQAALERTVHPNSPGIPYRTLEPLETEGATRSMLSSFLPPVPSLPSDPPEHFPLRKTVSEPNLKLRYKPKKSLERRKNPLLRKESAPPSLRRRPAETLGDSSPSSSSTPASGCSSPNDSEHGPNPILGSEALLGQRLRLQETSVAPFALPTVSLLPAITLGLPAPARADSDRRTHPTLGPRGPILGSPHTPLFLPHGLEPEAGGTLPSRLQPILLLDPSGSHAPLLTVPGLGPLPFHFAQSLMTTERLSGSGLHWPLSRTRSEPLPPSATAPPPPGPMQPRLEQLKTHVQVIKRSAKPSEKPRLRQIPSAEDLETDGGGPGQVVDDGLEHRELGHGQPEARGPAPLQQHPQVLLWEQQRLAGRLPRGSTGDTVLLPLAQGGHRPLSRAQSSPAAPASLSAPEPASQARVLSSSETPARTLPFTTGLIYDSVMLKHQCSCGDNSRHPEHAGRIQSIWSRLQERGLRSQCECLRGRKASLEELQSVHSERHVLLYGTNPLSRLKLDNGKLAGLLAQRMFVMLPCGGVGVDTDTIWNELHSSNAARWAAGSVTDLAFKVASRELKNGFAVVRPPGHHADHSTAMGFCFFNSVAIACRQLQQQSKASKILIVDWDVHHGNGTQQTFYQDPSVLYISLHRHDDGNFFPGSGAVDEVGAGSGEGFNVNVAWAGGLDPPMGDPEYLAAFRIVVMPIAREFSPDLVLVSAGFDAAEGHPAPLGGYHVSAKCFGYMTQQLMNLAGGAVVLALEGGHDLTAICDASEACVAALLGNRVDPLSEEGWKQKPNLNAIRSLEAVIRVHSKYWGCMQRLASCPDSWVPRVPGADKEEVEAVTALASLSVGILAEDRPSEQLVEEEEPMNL

[4] = target: HDAC2 (Homo sapiens, UniProt Q92769); test: HDAC2 colorimetric assay, substrate Boc-Lys(Ac)-AMC; type: biochemical
[5] = target: HDAC3 (Homo sapiens, UniProt O15379); test: HDAC3 colorimetric assay, substrate Boc-Lys(Ac)-AMC; type: biochemical; conditions: Table 1
[6] = target: HDAC4 (Homo sapiens, UniProt P56524); type: biochemical; conditions: Table 1
[7] = target: T2, HDAC6 (Homo sapiens, UniProt Q9UBN7); test: HDAC6 colorimetric assay, substrate Boc-Lys(Ac)-AMC; type: biochemical
T2 sequence (Q9UBN7 1-1215): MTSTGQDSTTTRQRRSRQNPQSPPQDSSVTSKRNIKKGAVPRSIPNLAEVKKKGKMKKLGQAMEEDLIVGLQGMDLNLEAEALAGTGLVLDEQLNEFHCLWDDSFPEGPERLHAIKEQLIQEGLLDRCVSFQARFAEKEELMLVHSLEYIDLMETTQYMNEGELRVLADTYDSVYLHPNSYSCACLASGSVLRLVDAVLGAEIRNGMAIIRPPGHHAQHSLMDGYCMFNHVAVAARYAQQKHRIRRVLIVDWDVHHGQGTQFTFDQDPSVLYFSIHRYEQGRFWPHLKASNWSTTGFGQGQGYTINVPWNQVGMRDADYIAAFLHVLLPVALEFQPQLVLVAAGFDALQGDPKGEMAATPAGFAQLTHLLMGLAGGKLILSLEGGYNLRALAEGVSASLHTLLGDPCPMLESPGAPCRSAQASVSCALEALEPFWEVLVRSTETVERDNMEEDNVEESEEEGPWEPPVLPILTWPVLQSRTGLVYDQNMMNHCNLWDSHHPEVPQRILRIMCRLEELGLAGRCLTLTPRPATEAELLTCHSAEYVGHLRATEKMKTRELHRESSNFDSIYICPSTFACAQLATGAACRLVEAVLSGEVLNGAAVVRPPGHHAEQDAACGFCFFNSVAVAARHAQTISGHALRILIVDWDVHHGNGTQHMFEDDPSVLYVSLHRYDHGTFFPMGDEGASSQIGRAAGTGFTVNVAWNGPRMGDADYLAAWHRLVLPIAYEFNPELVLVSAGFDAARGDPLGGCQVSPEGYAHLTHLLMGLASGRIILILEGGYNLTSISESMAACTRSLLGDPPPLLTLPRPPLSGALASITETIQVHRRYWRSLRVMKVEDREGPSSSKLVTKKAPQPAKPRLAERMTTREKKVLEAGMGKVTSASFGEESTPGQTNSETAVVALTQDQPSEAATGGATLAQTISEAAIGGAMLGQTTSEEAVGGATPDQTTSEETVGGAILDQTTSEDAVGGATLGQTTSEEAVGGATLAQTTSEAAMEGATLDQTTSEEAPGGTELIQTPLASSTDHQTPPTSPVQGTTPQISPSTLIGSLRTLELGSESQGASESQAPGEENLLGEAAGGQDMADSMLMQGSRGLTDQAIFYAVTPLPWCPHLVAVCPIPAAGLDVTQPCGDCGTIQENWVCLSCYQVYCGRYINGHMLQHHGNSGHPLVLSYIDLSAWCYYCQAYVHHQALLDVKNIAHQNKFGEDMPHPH

[8] = system: uterine leiomyosarcoma cell line SKUT-1; test: Growth inhibition of cancer cell line, resazurin assay; type: cell-based, Human; conditions: Table 2, resazurin assay
[9] = system: breast cancer cell line MCF-7; test: as above; type: cell-based, Human; conditions: Table 2, resazurin assay
[10] = target: T3, HDAC8 (Homo sapiens, UniProt Q9BY41); test: HDAC8 colorimetric assay, substrate Boc-Lys(TFA)-AMC
T3 sequence (Q9BY41 1-377): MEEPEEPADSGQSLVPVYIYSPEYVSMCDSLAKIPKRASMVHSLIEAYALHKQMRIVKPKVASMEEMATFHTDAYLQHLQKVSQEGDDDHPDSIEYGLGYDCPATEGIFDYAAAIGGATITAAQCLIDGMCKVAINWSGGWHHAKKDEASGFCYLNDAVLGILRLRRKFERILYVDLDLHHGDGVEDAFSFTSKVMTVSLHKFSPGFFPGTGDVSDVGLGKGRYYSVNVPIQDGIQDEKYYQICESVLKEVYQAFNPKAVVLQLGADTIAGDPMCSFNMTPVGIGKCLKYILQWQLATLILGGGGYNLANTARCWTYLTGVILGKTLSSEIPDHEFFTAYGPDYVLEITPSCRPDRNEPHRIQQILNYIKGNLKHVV
Protocol: 1 nM of HDAC4 was incubated with increasing concentrations of the respective compound for 30 minutes at 30° C. The reaction was initiated by addition of 20 μM of the substrate Boc-Lys(trifluoracetyl)-AMC. After an incubation of 60 minutes the reaction was stopped by addition of 20 μM SAHA and the deacetylated substrate was converted into a fluorescent product by the addition of trypsin.

[11] = system: T cell leukemia cell line JURKAT; test: Growth inhibition of cancer cell line, resazurin assay; conditions: for GI50: read-out: GI50 JURKAT
Protocol: The following tumor cell lines were used: • Human uterine leiomyosarcoma cell line SKUT-1 (ATCC® HTB114™) • Human T cell leukemia cell line JURKAT (ATCC® TIB152™) • Human breast cancer cell line MCF-7 (ATCC® HTB22™)
Cells were cultured in Dulbecco's modified Eagle's medium (DMEM) supplemented with 10% FCS.

[12] = IC50 for HDAC1, FIG. 3, 50 μM Boc-Lys(Ac)-AMC

Sequence of HDAC2 (Q92769 whole entry): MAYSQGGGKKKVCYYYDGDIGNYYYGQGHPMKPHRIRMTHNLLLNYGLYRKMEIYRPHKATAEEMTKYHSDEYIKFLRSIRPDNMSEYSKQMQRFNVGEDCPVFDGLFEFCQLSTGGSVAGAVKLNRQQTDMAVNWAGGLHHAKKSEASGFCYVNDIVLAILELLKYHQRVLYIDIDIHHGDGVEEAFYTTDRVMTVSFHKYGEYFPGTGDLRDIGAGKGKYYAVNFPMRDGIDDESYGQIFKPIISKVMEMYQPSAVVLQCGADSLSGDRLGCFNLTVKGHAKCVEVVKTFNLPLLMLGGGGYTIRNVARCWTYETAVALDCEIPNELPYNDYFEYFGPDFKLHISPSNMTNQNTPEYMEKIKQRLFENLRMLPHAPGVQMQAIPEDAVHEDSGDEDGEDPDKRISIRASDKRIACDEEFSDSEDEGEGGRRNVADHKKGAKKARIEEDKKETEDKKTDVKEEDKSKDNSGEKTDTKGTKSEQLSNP
Sequence of HDAC3 (O15379 whole entry): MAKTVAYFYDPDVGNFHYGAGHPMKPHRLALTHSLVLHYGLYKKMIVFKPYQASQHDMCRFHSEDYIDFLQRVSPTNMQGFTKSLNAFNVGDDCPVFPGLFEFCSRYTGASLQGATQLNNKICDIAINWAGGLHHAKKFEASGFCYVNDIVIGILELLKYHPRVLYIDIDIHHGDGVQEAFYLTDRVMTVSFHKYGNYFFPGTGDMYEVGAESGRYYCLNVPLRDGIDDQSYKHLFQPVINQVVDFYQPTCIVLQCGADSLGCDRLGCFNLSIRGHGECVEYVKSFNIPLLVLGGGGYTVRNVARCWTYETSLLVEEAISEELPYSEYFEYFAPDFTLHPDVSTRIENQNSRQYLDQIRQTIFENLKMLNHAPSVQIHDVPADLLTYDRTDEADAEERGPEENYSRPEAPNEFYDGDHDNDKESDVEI
Sequence of HDAC3 (Q9Y618 395-489 partner limits assumed): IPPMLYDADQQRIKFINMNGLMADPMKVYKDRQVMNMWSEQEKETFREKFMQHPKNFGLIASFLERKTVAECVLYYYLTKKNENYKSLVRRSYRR
Sequence of HDAC1 (Q13547 whole entry): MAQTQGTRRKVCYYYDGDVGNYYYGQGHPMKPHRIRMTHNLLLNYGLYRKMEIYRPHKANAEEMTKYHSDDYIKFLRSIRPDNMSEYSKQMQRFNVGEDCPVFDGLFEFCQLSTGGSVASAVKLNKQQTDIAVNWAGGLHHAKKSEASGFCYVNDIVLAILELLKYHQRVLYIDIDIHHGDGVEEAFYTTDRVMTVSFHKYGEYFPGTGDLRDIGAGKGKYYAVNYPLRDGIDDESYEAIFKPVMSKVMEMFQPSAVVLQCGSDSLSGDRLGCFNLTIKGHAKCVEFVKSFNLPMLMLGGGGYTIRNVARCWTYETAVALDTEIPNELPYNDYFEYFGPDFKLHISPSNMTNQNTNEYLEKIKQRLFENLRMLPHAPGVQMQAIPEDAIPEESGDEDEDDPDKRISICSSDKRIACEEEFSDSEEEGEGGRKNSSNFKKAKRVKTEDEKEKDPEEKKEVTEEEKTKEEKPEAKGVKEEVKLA
Sequence of HDAC4 (P56524 whole entry): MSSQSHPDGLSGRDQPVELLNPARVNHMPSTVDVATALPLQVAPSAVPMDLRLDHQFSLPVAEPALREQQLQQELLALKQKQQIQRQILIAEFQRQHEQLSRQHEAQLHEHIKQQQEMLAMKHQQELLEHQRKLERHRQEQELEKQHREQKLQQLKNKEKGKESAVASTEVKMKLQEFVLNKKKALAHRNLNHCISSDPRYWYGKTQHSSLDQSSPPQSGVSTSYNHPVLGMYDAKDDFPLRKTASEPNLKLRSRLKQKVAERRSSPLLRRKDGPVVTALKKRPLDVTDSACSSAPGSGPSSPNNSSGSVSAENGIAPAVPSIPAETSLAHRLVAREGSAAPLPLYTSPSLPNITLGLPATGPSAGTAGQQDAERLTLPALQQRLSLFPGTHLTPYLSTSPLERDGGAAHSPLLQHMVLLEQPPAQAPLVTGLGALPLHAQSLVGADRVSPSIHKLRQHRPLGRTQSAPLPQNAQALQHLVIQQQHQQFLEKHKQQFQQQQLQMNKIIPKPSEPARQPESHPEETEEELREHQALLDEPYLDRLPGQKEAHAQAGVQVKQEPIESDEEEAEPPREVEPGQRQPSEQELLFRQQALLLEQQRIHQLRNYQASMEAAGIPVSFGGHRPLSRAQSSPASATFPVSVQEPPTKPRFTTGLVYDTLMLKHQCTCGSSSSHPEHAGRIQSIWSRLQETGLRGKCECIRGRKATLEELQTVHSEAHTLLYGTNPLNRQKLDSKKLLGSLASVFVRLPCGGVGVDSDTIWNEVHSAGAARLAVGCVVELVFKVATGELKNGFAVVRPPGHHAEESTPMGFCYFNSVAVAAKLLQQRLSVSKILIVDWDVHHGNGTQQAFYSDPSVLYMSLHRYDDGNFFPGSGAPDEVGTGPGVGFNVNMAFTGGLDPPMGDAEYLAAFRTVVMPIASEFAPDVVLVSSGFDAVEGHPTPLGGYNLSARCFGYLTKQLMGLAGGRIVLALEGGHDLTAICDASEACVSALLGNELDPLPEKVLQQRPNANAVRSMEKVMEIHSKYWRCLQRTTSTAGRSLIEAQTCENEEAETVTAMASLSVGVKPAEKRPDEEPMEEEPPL
Sequence of HDAC5 (Q9UQL6 whole entry): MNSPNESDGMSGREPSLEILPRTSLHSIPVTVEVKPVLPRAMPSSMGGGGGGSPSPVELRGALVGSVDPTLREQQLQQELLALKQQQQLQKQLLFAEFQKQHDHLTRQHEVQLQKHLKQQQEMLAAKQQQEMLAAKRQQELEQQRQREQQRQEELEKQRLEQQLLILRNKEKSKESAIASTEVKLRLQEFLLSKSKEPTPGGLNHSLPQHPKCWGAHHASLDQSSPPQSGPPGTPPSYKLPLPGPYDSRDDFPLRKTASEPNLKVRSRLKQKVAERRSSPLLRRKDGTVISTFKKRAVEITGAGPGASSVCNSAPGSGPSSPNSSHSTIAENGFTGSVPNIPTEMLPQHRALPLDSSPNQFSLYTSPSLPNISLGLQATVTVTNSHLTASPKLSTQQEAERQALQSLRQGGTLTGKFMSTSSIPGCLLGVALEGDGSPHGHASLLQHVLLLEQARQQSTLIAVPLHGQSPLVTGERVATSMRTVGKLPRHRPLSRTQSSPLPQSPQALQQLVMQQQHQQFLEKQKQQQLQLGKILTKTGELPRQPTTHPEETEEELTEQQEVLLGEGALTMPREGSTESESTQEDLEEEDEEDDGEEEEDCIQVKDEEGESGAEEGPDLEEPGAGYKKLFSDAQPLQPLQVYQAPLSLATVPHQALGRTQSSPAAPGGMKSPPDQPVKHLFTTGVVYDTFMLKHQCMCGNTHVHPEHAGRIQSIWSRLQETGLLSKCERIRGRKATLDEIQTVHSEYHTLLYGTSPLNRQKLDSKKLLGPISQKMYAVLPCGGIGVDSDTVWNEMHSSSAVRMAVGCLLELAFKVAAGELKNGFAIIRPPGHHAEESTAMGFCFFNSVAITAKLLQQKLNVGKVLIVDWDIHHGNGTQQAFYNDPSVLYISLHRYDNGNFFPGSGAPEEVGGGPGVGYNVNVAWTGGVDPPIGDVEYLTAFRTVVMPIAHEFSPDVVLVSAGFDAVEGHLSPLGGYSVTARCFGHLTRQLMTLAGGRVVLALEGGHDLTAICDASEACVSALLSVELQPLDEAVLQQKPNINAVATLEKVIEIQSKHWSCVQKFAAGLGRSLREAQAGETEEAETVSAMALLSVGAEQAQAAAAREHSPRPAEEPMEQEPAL

| Compound | IC50 ([4]; Table 1) [µM] | IC50 [5] [µM] | IC50 [6] [µM] | IC50 ([7]; Table 1, read-out: IC50 HDAC6) [µM] | GI50 ([8]; Homo sapiens, SK-UT-1) [µM] | GI50 ([9]; Homo sapiens, MCF7) [µM] | IC50 ([1]; IC50 HDAC1, Table 1) [µM] | IC50 [2] [µM] | IC50 ([3]; IC50 HDAC7, Table 1) [µM] | IC50 ([10]; IC50 HDAC8, Table 1) [µM] | GI50 ([11]; Homo sapiens, Jurkat) [µM] | other results |
| --- | --- | --- | --- | --- | --- | --- | --- | --- | --- | --- | --- | --- |
| N=C1Sc2ccccc2C2=NCCCN12 [Compound P2742, 6H-6-Imino-(2,3,4,5-tetrahydropyrimido)[1,2-c]-[1,3]benzothiazine, reference compound] |  |  |  |  |  |  |  |  |  |  |  | IC50 [1, 12]: 3 µM; IC50 ([2]; read-out: IC50 for HDAC5, FIG. 3, 20 μM Boc-Lys(TFA)-AMC): 0.11 µM; IC50 [3]: 0.24 µM |
| N=C1Sc2c(F)cccc2C2=NCCCN12 [Compound 13h, 8-Fluoro-3,4-dihydrobenzo[e]pyrimido[1,2-c][1,3]thiazin-6(2H)-imine] | > 50 | > 50 | 5.1 ± 0.6 | 5.2 ± 1.1 | > 1000 | > 1000 | 35 ± 3 | 0.74 ± 0.16 | 5 ± 1 | 0.017 ± 0.001 | 42 ± 3 |  |
| N=C1Sc2ccccc2C2=NCCN12 [Compound 13b, 2H-Benzo[e]Imidazo[1,2-c][1,3]Thiazin-5(3H)-Imine] | > 50 | > 50 | > 50 | > 50 | 343 ± 191 | 213 ± 50 | > 50 | > 50 | 1.3 ± 0.7 | 4.4 ± 0.8 | 558 ± 342 |  |
| N=C1Sc2ccccc2C2=NCCCN12 [Compound 13a, 3,4-Dihydrobenzo[e]Pyrimido[1,2-c][1,3]Thiazin-6(2H)-Imine] |  |  |  |  | 736 ± 659 | > 1000 | 3.6 ± 0.8 |  |  |  | 63 ± 8 | IC50 [4]: 32 ± 1.5 µM; IC50 [7]: 6.7 ± 0.8 µM; IC50 ([2]; read-out: IC50 HDAC5, Table 1): 0.11 ± 0.01 µM; IC50 ([3]; read-out: IC50 HDAC7, Table 1): 0.22 ± 0.02 µM; GI against JURKAT cells [11]: 63 µM; times less active against JURKAT cells than on the isolated HDAC8 enzyme ([11]; ratio of JURKAT value to HDAC8 IC50): more than 5700 |
| N=C1Sc2cccc(Br)c2C2=NCCCN12 [Compound 13j, 11-Bromo-3,4-Dihydrobenzo[e]Pyrimido[1,2-c][1,3]Thiazin-6(2H)-Imine] | 16 ± 2 | 7 ± 0.5 | 2.3 ± 0.3 | 1.4 ± 0.2 | 16 ± 3 | 11 ± 3 | 2.6 ± 0.3 | 0.038 ± 0.001 | 2 ± 0.7 | 0.0063 ± 0.0004 | 17 ± 3 |  |
| N=C1Sc2cc(Br)ccc2C2=NCCCN12 [Compound 13g, 9-Bromo-3,4-Dihydrobenzo[e]Pyrimido[1,2-c][1,3]Thiazin-6(2H)-Imine] | > 50 | 6.7 ± 0.4 | 2 ± 0.1 | 2.8 ± 0.7 | 76 ± 7 | > 1000 | 1.7 ± 0.2 | 0.14 ± 0.02 | 1.7 ± 0.2 | 0.0029 ± 0.0001 | 30 ± 3 |  |
| N=C1Sc2cc(F)ccc2C2=NCCCN12 [Compound 13f, 9-Fluoro-3,4-Dihydrobenzo[e]Pyrimido[1,2-c][1,3]Thiazin-6(2H)-Imine] | > 50 | 10 ± 0.56 | 2.84 ± 0.13 | 9 ± 4 | 147 ± 73 | > 1000 | 2.9 ± 0.3 | 0.17 ± 0.02 | 2.6 ± 0.4 | 0.0041 ± 0.0002 | 33 ± 3 |  |
| Cc1ccc2c(c1)SC(=N)N1CCCN=C21 [Compound 13k, 9-Methyl-3,4-Dihydrobenzo[e]Pyrimido[1,2-c][1,3]Thiazin-6(2H)-Imine] | > 50 | 26 ± 4 | 7.6 ± 0.8 | 1.3 ± 0.3 | 45 ± 16 | 44 ± 12 | 5.8 ± 0.3 | 0.24 ± 0.01 | 2.5 ± 0.1 | 0.0054 ± 0.0004 | 36 ± 4 |  |
| N=C1Sc2ccc(F)cc2C2=NCCCN12 [Compound 13l, 10-Fluoro-3,4-Dihydrobenzo[e]Pyrimido[1,2-c][1,3]Thiazin-6(2H)-Imine] | 30 ± 2 | 5.3 ± 0.4 | 2.2 ± 0.3 | 0.65 ± 0.11 | 24 ± 5 | 79 ± 11 | 2.1 ± 0.2 | 0.046 ± 0.003 | 1.5 ± 0.4 | 0.006 ± 0.0006 | 16 ± 2 |  |
| O=C(CCCCCCC(=O)Nc1ccccc1)NO [Compound 1, Vorinostat, reference compound] |  |  |  |  | 5.4 ± 0.4 | 3.7 ± 0.4 |  |  |  |  | 3.7 ± 0.4 |  |
| N=C1Sc2ccc(Cl)cc2C2=NCCN12 [Compound 13c, 9-Chloro-2H-Benzo[e]Imidazo[1,2-c][1,3]Thiazin-5(3H)-Imine] | > 50 | > 50 | > 50 | 32 ± 18 | 64 ± 7 | 60 ± 6 | 21 ± 1 | 13 | 0.5 ± 0.2 | 0.18 ± 0.02 | 67 ± 8 | IC50 [1, 12]: 20 µM; IC50 ([3]; IC50 for HDAC7, FIG. 3, 20 μM Boc-Lys(TFA)-AMC): 0.51 µM; IC50 ([10]; IC50 for HDAC8, FIG. 3, 20 μM Boc-Lys(TFA)-AMC): 0.2 µM |
| COc1ccc(Cn2ccc3ccc(C(=O)NO)cc32)cc1 [Compound 6, PCI-34051, reference compound] |  |  |  |  |  |  |  |  |  |  |  | GI50 ([8]; read-out: GI50 SK-UT-1): 136 ± 62 µM; GI50 ([9]; read-out: GI50 MCF7): 65 ± 18 µM; GI50 ([11]; Table 2, resazurin assay): 40 ± 4 µM |

— US20210220370A1, “SELECTIVE HDAC8 INHIBITORS AND THEIR USES” (HOCHSCHULE DARMSTADT, priority 2015, published 2021)
